According to patent publication US10801035B2, “Plants having increased tolerance to herbicides” (BASF SE, priority 2011, dated 2020):

Experiments:
[1] = biological target: T1, Hordeum HPPD variant G407C (Hordeum vulgare, UniProt O48604, A164G/G407C/R146V/R147D/R148G); assay: HPPD activity assay, Hordeum HPPD mutant G407C; assay type: biochemical; details: normalized on wildtype
T1 construct: His6; made in house; host or cells: E. coli BL21 (DE3)
Description: (§1) HPPD produces homogentisic acid and CO2 from 4-hydroxyphenylpyruvate (4-HPP) and O2. The activity assay for HPPD is based on the analysis of homogentisic acid by reversed phase HPLC.
(§2) The assay mixture can contain 150 mM potassium phosphate buffer pH 7.0, 50 mM L-ascorbic acid, 1 μM FeSO4 and 7 μg of purified enzyme in a total volume of 1 ml. Inhibitors are dissolved in DMSO (dimethylsulfoxide) to a concentration of 20 mM or 0.5 mM, respectively. From this stock solution serial five-fold dilutions are prepared in DMSO, which are used in the assay. The respective inhibitor solution accounts for 1% of the assay volume. Thus, final inhibitor concentrations range from 200 μM to 2.5 nM or from 5 μM to 63 pM, respectively. After a preincubation of 30 min the reaction is started by adding 4-HPP to a final concentration of 0.1 mM. […]
(§3) Inhibitors are dissolved in DMSO (dimethylsulfoxide) to a concentration of 0.5 mM. […] IC50 values are calculated using non-linear regression.
(§4) Purified, mutant HPPD enzymes are obtained by the methods described above. […] Apparent michaelis constants (Km) and maximal reaction velocities (Vmax) are calculated by non-linear regression with the software GraphPad Prism 5 (GraphPad Software, La Jolla, USA) using a substrate inhibition model. […] Weighted means (by standard error) of Km and […] values are calculated from at least three independent experiments. […]

Avena HPPD = assay: HPPD activity assay, Avena HPPD; assay type: biochemical; details: normalized on Hordeum HPPD
Description: as §1
as §2, with “volume.” for “volume. Thus, final inhibitor concentrations range from 200 μM to 2.5 nM or from 5 μM to 63 pM, respectively. After a preincubation of 30 min the reaction is started by adding 4-HPP to a final concentration of 0.1 mM.”
(§5) Activities are normalized by setting the uninhibited enzyme activity to 100%. […] values are calculated using non-linear regression. […]
as §3
(§6) Using methods which are described in the above examples or well known in the art, purified, recombinant wildtype HPPD enzymes are characterized with respect to their kinetic properties and sensitivity towards HPPD inhibiting herbicides. Apparent michaelis constants (Km) and maximal reaction velocities (Vmax) are calculated by non-linear regression with the software GraphPad Prism 5 (GraphPad Software, La Jolla, USA) using a substrate inhibition model. […]

[2] = system: transgenic Arabidopsis plants overexpressing Barley HPPD (Seq ID: 2); assay: Arabidopsis growth inhibition in 48-well plates, line overexpressing Barley HPPD; assay type: in vivo, Arabidopsis thaliana; details: Barley HPPD (Seq ID: 2) overexpression line; plant growth IC50 of transgenic divided by wildtype
Description: Depending on the species, the plants are kept at 10-25° C. or 20-35° C. The test period extends over 3 weeks. During this time, the plants are tended and their response to the individual treatments is evaluated. Herbicide injury evaluations are taken at 2 and 3 weeks after treatment. Plant injury is rated on a scale of 0 to 9, 0 being no injury and 9 being complete death. Tolerance to coumarone-derivative herbicides can also be assessed in Arabidopsis. In this case transgenic Arabidopsis thaliana plants are assayed for improved tolerance to coumarone-derivative herbicides in 48-well plates. Seeds are surface sterilized by stirring for 5 min in ethanol+water (70+30 by volume), rinsing one time with ethanol+water (70+30 by volume) and two times with a sterile, deionized water. The seeds are resuspended in 0.1% agar dissolved in water (w/v). Four to five seeds per well are plated on solid nutrient medium consisting of half-strength Murashige Skoog nutrient solution, pH 5.8 (Murashige and Skoog (1962) Physiologia Plantarum 15: 473-497). […] Seven to ten days after seeding growth inhibition is evaluated by comparison to wild type plants. Tolerance factor is calculated by dividing the plant growth IC50 value of transgenic plants containing a HPPD and/or HST sequence by that of wildtype plants. […]

[3] = biological target: T2, Hordeum HPPD variant L334E (Hordeum vulgare, UniProt O48604, A164G/L334E/R146V/R147D/R148G); assay: HPPD activity assay, Hordeum HPPD mutant L334E; assay type: biochemical; details: normalized on wildtype
T2 construct: His6; made in house; host or cells: E. coli BL21 (DE3)
Description: as §1, §2, §3, §4

Kordia HPPD = assay: HPPD activity assay, Kordia HPPD; assay type: biochemical; details: normalized on Hordeum HPPD
Description: as §1
as §2, with “volume.” for “volume. Thus, final inhibitor concentrations range from 200 μM to 2.5 nM or from 5 μM to 63 pM, respectively. After a preincubation of 30 min the reaction is started by adding 4-HPP to a final concentration of 0.1 mM.”
as §5, §3, §6

[4] = biological target: T3, Hordeum HPPD variant L320H, P321A (Hordeum vulgare, UniProt O48604, L320H/P321A); assay: HPPD activity assay, Hordeum HPPD mutant L320H, P321A; assay type: biochemical; details: normalized on wildtype
T3 construct: His6; made in house; host or cells: E. coli BL21 (DE3)
Description: as §1, §2, §3, §4

Lolium HPPD = assay: HPPD activity assay, Lolium HPPD; assay type: biochemical; details: normalized on Hordeum HPPD
Description: as §1
as §2, with “volume.” for “volume. Thus, final inhibitor concentrations range from 200 μM to 2.5 nM or from 5 μM to 63 pM, respectively. After a preincubation of 30 min the reaction is started by adding 4-HPP to a final concentration of 0.1 mM.”
as §5, §3, §6

Blepharisma HPPD = assay: HPPD activity assay, Blepharisma HPPD; assay type: biochemical; details: normalized on Hordeum HPPD
Description: as §1
as §2, with “volume.” for “volume. Thus, final inhibitor concentrations range from 200 μM to 2.5 nM or from 5 μM to 63 pM, respectively. After a preincubation of 30 min the reaction is started by adding 4-HPP to a final concentration of 0.1 mM.”
as §5, §3, §6

T1 sequence (O48604 whole entry R146V/R147D/R148G/A164G/G407C): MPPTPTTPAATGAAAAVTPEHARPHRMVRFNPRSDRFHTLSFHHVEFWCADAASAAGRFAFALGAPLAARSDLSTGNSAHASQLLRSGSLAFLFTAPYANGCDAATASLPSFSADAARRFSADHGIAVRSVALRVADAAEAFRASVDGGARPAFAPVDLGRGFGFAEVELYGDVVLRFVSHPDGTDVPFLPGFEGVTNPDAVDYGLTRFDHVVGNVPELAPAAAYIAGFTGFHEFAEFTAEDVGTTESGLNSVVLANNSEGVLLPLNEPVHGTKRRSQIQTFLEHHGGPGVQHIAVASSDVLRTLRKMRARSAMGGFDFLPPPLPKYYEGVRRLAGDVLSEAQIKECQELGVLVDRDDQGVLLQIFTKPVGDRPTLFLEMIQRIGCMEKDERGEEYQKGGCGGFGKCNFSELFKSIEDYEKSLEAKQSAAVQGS
T2 sequence (O48604 whole entry R146V/R147D/R148G/A164G/L334E): as the sequence (O48604 whole entry R146V/R147D/R148G/A164G/G407C) above, with L334E, C407G counted along it
T3 sequence (O48604 whole entry R146V/R147D/R148G/A164G/L320H/P321A): as the sequence (O48604 whole entry R146V/R147D/R148G/A164G/G407C) above, with L320H, P321A, C407G counted along it

Row | SMILES | Normalized tolerance index (TI) [1] | Normalized tolerance index (TI) (Avena HPPD) | Tolerance factor [2] | Normalized tolerance index (TI) [3] | Normalized tolerance index (TI) (Kordia HPPD) | Normalized tolerance index (TI) [4] | Normalized tolerance index (TI) (Lolium HPPD) | Normalized tolerance index (TI) (Blepharisma HPPD)
1 | CC1=NOC(c2c(Cl)ccc(C3=C(O)c4ncccc4N(CC(F)F)S3(=O)=O)c2Cl)C1 (stereo not shown) [Inhibitor 1, 3-[2,4-dichloro-3-(3-methyl-4,5-dihydroisoxazol-5-yl)phenyl]-1-(2,2-difluoroethyl)-2,2-dioxo-pyrido[3,2-c]thiazin-4-ol] | 1.6 | 7.4 | 3 | 3.8 | 7.5 | 6.5 | 6.5 | 6.3
2 | O=S1(=O)C(c2c(Cl)cc(Cl)nc2Cl)=C(O)c2ncccc2N1CC(F)F [Inhibitor 2, 1-(2,2-difluoroethyl)-2,2-dioxo-3-(2,4,6-trichloro-3-pyridyl)pyrido[3,2-c]thiazin-4-ol] | 3.2 | 5.2 | 4 | 2.2 | 12 | 3.7 | 5.6 | 4.9
